In data set [1] the test system is melatonin binding sites in cytosol of stromal cells from human BPH prostate tissue. Kind of data set: Specific binding of 125I-melatonin to cytosol from stromal cells of human BPH tissue. Particulars: for Bound in Stromal (specific binding, mean): 4 patients. As to the method:
(§1) Tissue specimens were obtained from prostate glands removed by open surgery from patients suffering from urinary obstruction due to benign prostatic hyperplasia. Epithelial and stromal cells were separated from the tissue by filtration through a stainless steel mesh. The cells were then washed with saline and collected by centrifugation (1000 g, 5 min). […] The two preparations were separately homogenized at 4° C. in 0.05 M Tris-HCl, pH 7.4. Each homogenate was spun at 100,000 g for 1 hour at 4° C. and the supernatant was removed with a Pasteur pipette. Melatonin binding was measured by incubating 300 microliters of supernatant containing ca. 20 mcg. protein with carrier-free ^125 I-melatonin at concentrations of 0-1 nM, for 1 hour at 37° C. in the presence of 0.05% Triton X-100. After the incubation period, bound ^125 I-melatonin was separated from free ^125 I-melatonin by vacuum filtration using GFF glass fiber filters saturated with polyethylenimine. Protein concentrations were measured by the method of Lowry et al (J. Biol. Chem., 193: 265, 1951) using bovine serum albumin as a standard. Non-specific binding was determined by incubating the supernatant samples with the specified concentrations of ^125 I-melatonin, but in the presence of a vast excess (10 micromolar) nonradioactive melatonin. These experiments were repeated four times, using specimens from four different patients, with similar results.

Data set [2] deals with melatonin binding sites in cytosol of epithelial cells from human BPH prostate tissue. Kind of data set: Specific binding of 125I-melatonin to cytosol from epithelial cells of human BPH tissue. The following applies: for Bound in Epithelial (specific binding, mean): 4 patients. Here is the method:
as §1, with “melatonin.” for “melatonin. These experiments were repeated four times, using specimens from four different patients, with similar results.”

Data set [3] concerns BPH patients. The data set is classed as in vivo, human. Here is the method:
In a clinical trial which commenced in April, 1993, 23 BPH patients were recruited and divided into two groups, one group receiving 5 mg melatonin in a sustained release formulation and the other group 50 mg melatonin in a fast release formulation, these dosages being given daily, in the evening. One patient withdrew from the study after 7 days of treatment. […] Up to August, 1993, 6 patients finished 3 months' treatment with melatonin, and the remainder had 1-2 months treatment. All patients will continue the treatment with melatonin until 6 months is completed.

Data set [4] relates to BPH patients. Kind of data set: Example II: ultrastructural morphology of the human prostate after 30 days of melatonin. The data set is classed as in vivo. Particulars: 5 mg sustained release daily in the evening, 30 days prior to prostatectomy, five BPH patients. The text has this:
Specimens from the prostate glands removed from the treated patients, and from control untreated patients of the same status, were fixed in glutaraldehyde immediately after the excision, embedded in "Epon" and analyzed by electron microscopy.

The next data set relates to 5α reductase. The following applies: BPH tissue samples; cited from earlier work.
For the next data set, the system named is pinealectomized rats. The following applies: orally administered; cited from earlier work.
For data set [5], the system named is male volunteers suffering from BPH. Kind of data set: Experiment 2: placebo-controlled study of oral melatonin in male volunteers suffering from BPH. The data set is classed as in vivo, human. Particulars: 5 mg melatonin/day oral at about 10 p.m.; preliminary results.
The subject of the next data set is human subjects. Particulars: cited from earlier work.
The test system of another data set is male and female rats. Particulars: oral 16-40 mcg. per day; cited from earlier work.
In data set [6] the test system is melatonin binding sites in the rat brain. Kind of data set: Experiment 5: melatonin binding sites in rat brain, sham-operated and pinealectomized rats. The data set is classed as in vivo.
For data set [7], the system named is 8-10 month old adult rats. Kind of data set: Experiment 4: long term (~18 months) melatonin via drinking water in adult rats. The data set is classed as in vivo, rat. As to the method:
The effects on 8-10 month old adult rats, of long term (~18 months) administration of melatonin via the drinking water (4 mg./l.), on the survival, on central melatonin binding sites, and on serum testosterone, were investigated.

A further data set has as its system 3α reductase. The following applies: BPH tissue samples; cited from earlier work.
The next data set has as its system adult castrated rats. Kind of data set: Experiment 1: androgen-dependent regrowth of accessory sex organs in adult castrated rats. The data set is classed as in vivo, rat. The following applies: testosterone propionate 1 mg/kg/day s.c. 4 days, melatonin about 40 mcg per day in drinking water. Here is the method:
The effects of orally administered melatonin on androgen-dependent prostatal regrowth in adult castrated rats was investigated. Male rats (2.5 months old) were castrated under anesthesia. After 7 days, during which the average weight of the prostate decreased by ca. 60%, the rats were given daily for 4 days, a subcutaneous injection of either oil vehicle (control) or oil vehicle containing testosterone propionate (1 mg/kg body weight per day, at one hour before lights-off). […] In order to determine the weight of the relevant organs, the rats were sacrificed at the end of the 4 days following the first 7 days. […] These studies indicate a direct inhibitory effect of orally administered melatonin on prostatal growth in adult rats, contrary to the dogma that melatonin can affect the pubertal development of the rat only during the first (prepubertal) 40 days of life (Lang et al. Endocrinology,112, 1578-1584, 1983).

The test system of data set [8] is castrated rats; hypophysectomized animals. The following applies: cited from earlier work.
The test system of data set [9] is patient with benign prostate hypertrophy. Kind of data set: Example I: BPH patient on 0.5 mg sustained release melatonin daily. The data set is classed as in vivo, human. Here is the method: Thus, the patient's PSA level was elevated, and their prostatic acid phosphatase level was slightly above normal. […] Diagnosis after needle biopsy was benign prostate hypertrophy.
The patient began taking 0.5 mg melatonin in the sustained release form daily at 21:00-22:00 hours on Feb. 1, 1992; on a continuing basis, i.e. medication was continued essentially indefinitely. […] Examination of the patient by ultrasonographic scanning on Oct. […] By Jun.

For the next data set, the system named is aged male rats. Kind of data set: Experiment 3: melatonin via drinking water for 30 days in aged male rats. The data set is classed as in vivo, rat. The following applies: 23-month old male rats. As to the method: The impact of exogenously administered melatonin on central melatonin binding sites and serum testosterone in aged male rats was investigated. Thus, 23-month old male rats were treated with melatonin via the drinking water for 30 days.

[10] abbreviates: patients who had completed 3 months' treatment.
Setting [11] is: 4 mg./l. in drinking water, ~18 months.
[12] abbreviates: pinealectomized rats, daily injections.

On to `COc1ccc2[nH]c([125I])c(CCNC(C)=O)c2c1` [^125 I-melatonin], for which the “Bound in Stromal (specific binding, mean)” value was found to be 0.6 fmol/mg protein in data set [1] (125I-melatonin 0.05 nM); 2.5 fmol/mg protein in data set [1] (125I-melatonin 0.10 nM); 3.7 fmol/mg protein in data set [1] (125I-melatonin 0.20 nM); 4.3 fmol/mg protein in data set [1] (125I-melatonin 0.30 nM); 8.8 fmol/mg protein in data set [1] (125I-melatonin 0.50 nM); 16.2 fmol/mg protein in data set [1] (125I-melatonin 1.00 nM). Also, the “Bound in Epithelial (specific binding, mean)” value in data set [2] (125I-melatonin 0.05 nM) was 6.25 fmol/mg protein; in data set [2] (125I-melatonin 0.10 nM), 12.5 fmol/mg protein; in data set [2] (125I-melatonin 0.20 nM) it was 31.3 fmol/mg protein; in data set [2] (125I-melatonin 0.30 nM) it was 45.6 fmol/mg protein; in data set [2] (125I-melatonin 0.50 nM) it was 66.9 fmol/mg protein; in [2] (125I-melatonin 1.00 nM), 93.1 fmol/mg protein.

Regarding `COc1ccc2[nH]cc(CCNC(C)=O)c2c1` [melatonin], the “urinary flow (subjective)” value in the data set with BPH patients [3] (5 mg sustained release or 50 mg fast release daily in the evening, all patients but one who withdrew) is recorded as “subjective improvement of urinary flow”. Besides, in the data set with BPH patients [3] (setting [10]), the “decrease in the PSA level” value was “approximately 10%” and the “enlargement of the prostate gland” value is “no further enlargement of the prostate gland”. The “ultrastructural morphology of prostate specimens (electron microscopy)” value with BPH patients [4] is given as “evidence for secretion of fresh collagen bundles”. Further, in the data set on 5α reductase, the 5α reductase activity entry is recorded as “did not affect 5α reductase activity”. In the data set with pinealectomized rats, the “ventral prostate and seminal vesicle weight” value was “lowered ventral prostate and seminal vesicle weight”. Moreover, in [5], the urinary flow entry is “immediate improvement in urinary flow in some of the patients”. In data set [1] (relative to 140 fmol/mg in epithelial cytosol), the “concentration of binding sites in stromal cytosol, factor lower than epithelial” value was “approximately 10 x”. Further, the “specific binding in the stromal preparations” value in [1] (stromal cell cytosol) is recorded as “very low”. In addition, the toxicity entry in the data set on human subjects (human, in vivo) is “no significant toxicity has been observed”. In addition, in the data set on human subjects (humans), the circulating testosterone levels entry is “does not increase circulating testosterone levels”. The “pubertal development, including prostate development in the males” value with male and female rats was “delayed pubertal development of male and female rats”. The “125I-melatonin binding in the various brain areas” value in data set [6] (pinealectomized rats, melatonin via drinking water, any time recorded) was “had no effect on ^125 I-melatonin binding”. In addition, the “125I-melatonin binding in hippocampus and midbrain” value in [6] (sham-operated rats, melatonin via drinking water, 13 hours after lights-on) was “decrease in ^125 I-melatonin binding”. Besides, in [7] (setting [11]), the “melatonin binding sites in brain of aged rats” value is “significantly increased melatonin binding sites in the medulla-pons and hypothalamus”; the “number of rats surviving at the age of 24-29 months” value was “markedly increased the number of rats surviving”; the “serum testosterone levels vs untreated controls” value is recorded as “significantly higher”. The “survival at age 27-29 months” value in data set [7] (4 mg./l. in drinking water, control 7 of 16) is given as “these continued to live at age 27-29 months”. The “animals surviving at age 26-28 months” value in data set [7] (4 mg./l. in drinking water, control 8 of 16, P=0.01) is given as 13 of 15 animals. In data set [7] (aged survivors, 5 of 7 control survivors had severe pneumonia), the pneumonia entry is recorded as “either did not suffer from pneumonia, or had only very weak symptoms”. The 3α reductase activity result in the data set with 3α reductase is recorded as “stimulate 3α reductase activity”. In the data set with adult castrated rats, the “weight / regrowth of seminal vesicles” value is listed as “did not significantly affect regrowth of the seminal vesicles”, the “weight / regrowth of ventral prostate” value is “prevented the testosterone-mediated regrowth of the prostate” and the weight of epididemis result is “had hardly any effect on the epididemis”. The “weight of testes and ventral prostate gland” value in data set [8] (hypophysectomized animals) is “decreases the weight of both the testes and the ventral prostate gland”. In data set [8] (subcutaneous 750 mcg., castrated rats, in presence of exogenous testosterone), the “regression of the ventral prostate gland” value was “enhances regression of the ventral prostate gland”. Moreover, the “urinary flow (subjective)” value in data set [9] (0.5 mg sustained release daily at 21:00-22:00, 6 days after initiation) is on record as “subjective improvement in urinary flow”. Further, the “estimated size of the prostate gland (ultrasonographic scanning)” value in data set [9] (0.5 mg sustained release daily, Oct. 22, 1992, 55 g before and after) is “no change in estimated size of the prostate gland”. For the same molecule, the “residual bladder urine volume retained after two attempts to empty the bladder” value in data set [9] (0.5 mg sustained release daily, Oct. 22, 1992, 100 ml before treatment) is reported as “zero”. Moreover, the Kd in data set [2] (125I-melatonin probe, epithelial cell cytosol, 1 hour at 37° C., read-out: dissociation constant) was found to be 0.6 nM. The binding site density in [2] (epithelial cell cytosol) was 140 fmol/mg cytosol protein. Further, in the data set with aged male rats, the “melatonin binding sites in brain areas” value was “markedly increased melatonin binding sites in the hypothalamus, medulla-pons, thalamus and cortex”; the “serum testosterone levels vs untreated controls” value is “did not significantly differ”; the “suppressive effect of testosterone on melatonin binding sites in hypothalamus and hippocampus” value is “attenuated a suppressive effect of testosterone on melatonin binding sites”.

Turning to `O=C1Nc2ccc(Cl)cc2C(c2ccccc2)=NC1O` (stereo not shown) [oxazepam], in data set [6] (setting [12]), the “melatonin binding at other times of the day” value is reported as “did not significantly effect the binding at other times of the day” and the “melatonin binding sites at 19 hours after lights-on” value is recorded as “decreased melatonin binding sites at 19 hours after lights-on”. In addition, the “densities of melatonin binding sites in brain areas, time of peak” value in data set [6] (sham-operated rats, daily injections 14 days, untreated peak at 13 hours after lights-on) is on record as “higher at midnight”.

For the molecule `CCC(=O)O[C@H]1CC[C@H]2[C@@H]3CCC4=CC(=O)CC[C@]4(C)[C@H]3CC[C@]12C` [testosterone, testosterone propionate], in the data set with adult castrated rats, the “weight / regrowth of seminal vesicles” value was “increased the weight of the seminal vesicles and ventral prostate”; the “weight / regrowth of ventral prostate” value is “increased the weight of the seminal vesicles and ventral prostate”; the weight of epididemis entry is “had no effect on the epididemis”.

(Values after patent US6048888A, “Method and pharmaceutical formulation for treating benign prostatic hyperplasia” (priority 1993, dated 2000).)
